Reference: patent publication EP0532027B1, “Cyclic nitrones, their preparation and pharmaceutical compositions containing them” (MERRELL PHARMACEUTICALS INC., priority 1991, dated 1993)

Experiments:
[1] = system: animal models of circulatory shock; settings: literature (Hamburger & McCay; Novelli et al.); cited from earlier work
gerbils [2] = settings: literature (Floyd; Oliver et al; Phillis et al); versus control animals; cited from earlier work
myocardial tissues = settings: literature (Bolli et al); cited from earlier work
gerbils [3] = experiment: Gerbil model of stroke (cerebral ischemia/reperfusion); type: in vivo; settings: for locomotor activity of ischemic gerbils: pretreated 30 minutes prior to ischemic event, Figure III; for protective effect in gerbil model: 32 mg/kg, Figure V
Description: One of the primary therapeutic uses of pharmaceutical compositions containing these compounds will be in the treatment of stroke. Strokes are associated with cerebral ischemia. Initially, it was thought that the CNS damage that often accompanies a stroke was a direct result of the tissues being deprived of oxygen. Recent research has shown that most of the damage occurs when the tissues are reoxygenated during reperfusion. […] Gastroenterology, 82, 9-15 (1982). Oliver et al has shown that a significant amount of this damage occurs due to free oxygen radicals and the oxidation sequence which they initiate, Proc. Natl. Acad. Sci. USA, vol. 87, pp 5144-5147 July 1990. […] In this model the carotid arteries of gerbils are constricted surgically and after a predetermined period, the constriction is removed so that surrounding tissues may be reperfused. CNS damage, which occurs upon reperfusion, can be measured by the level of protein oxidation that occurs in the brain or by examining the gerbil's behavior. […] Oliver et al and Phillis et al have also shown similar results with PBN, supra and Neuroscience Letter, 116 (1990) 315-319.
The compound, 3,4-dihydro-3,3-dimethylisoquinoline N-oxide which was the product of Example I (hereinafter compound) was tested in a gerbil model as described above. The exact procedure utilized is described by Chandler et al. in Journal of Pharmacological Methods Vol. 14, pages 137-146 (1985). Figures I-V summarize the results that were obtained.
Figure I depicts the effect the compound had on the motor activity of non-ischemic gerbils.
Figure II depicts the effects that ischemia has upon the gerbils locomotor activity.
The gerbils were pretreated with the compound 30 minutes prior to initiation of the ischemic event.
Figure IV compares the neuronal loss of ischemic gerbils receiving various doses of compound with both control gerbils and non-ischemic gerbils.
All compounds were administered at 32 mg/kg. […] Compound A represents the product of Example I, F = Example III, and G = Example II.

Interleukin-1 = experiment: Blood levels of interleukin-1 in endotoxin-treated mice (ELISA); type: in vivo, male Charles-Dawley mice; settings: mice given endotoxin and test compound, endotoxin alone 58.3, vehicle without endotoxin 29.2
Method: Normal 7 week old male Charles-Dawley mice were utilized in the assay. The mice were injected with vehicle and a baseline blood level of IL-1 was established by an IL-1 specific ELISA ninety (90) minutes after administration. The animals were then administered both endotoxin and vehicle and a blood level of IL-1 was determined. Finally the animals were administered endotoxin and the test compound and the effect upon IL-1 blood levels was determined.

ENDOTOXIN TREATED RATS = experiment: Animal model of septic shock: survival of endotoxin treated rats; type: in vivo, Male Sprague Dawley rats; settings: 72 hours after endotoxin
Method: In this test rats were injected with endotoxin and a control survival rate was determined. Other groups of rats were pretreated with one of the compounds of Formula I at varied dosages and then administered endotoxin and the survival rates were compared. This test was conducted in the following manner. Male Sprague Dawley rats were utilized (weight 215g-300g) in each test group. Endotoxin (30mg/kg) was administered intraperitoneally (IP). A test compound or vehicle was administered IP 30 minutes prior to endotoxin administration. The following results were obtained: TABLE III

[4] = system: INTERLEUKIN-1 RELEASE BY HUMAN MACROPHAGES; experiment: Inhibition of interleukin-1 release by endotoxin-stimulated human macrophages (ELISA); type: cell-based; settings: Macrophage, two million macrophages stimulated with 20 nanograms endotoxin for 24 hours, IL-1 in supernatant
Description: These include arthritis, psoriasis, athersclerosis, and diabetes. […] One such in-vitro assay is based upon the fact that when human macrophages are exposed to endotoxin, the macrophages secrete IL-1.
The in-vitro studies of IL-1 production was facilitated by a specific property of macrophages, i. e. attachment to non-self, e.g. plastic surface. In this assay, human peripheral blood monocyte-derived macrophages were enriched by plastic adherence. Two million of these macrophages were stimulated with 20 nanograms of endotoxin for 24 hours. Culture supernatants were then collected and the levels of IL-1 were assayed by enzyme-linked immuno-sorbent assay (ELISA). The same assay was repeated except that it was done in the presence of the test compound. The assay was repeated until an IC50 was calculated.

[5] = Inhibition of oxidation of soy PC liposome initiated with hydrogen peroxide and Fe2+ (thiobarbituric acid readout); type: biochemical; settings: amount required to inhibit 100% of oxidation of soy liposome over 15 minutes; 50uM H2O2, 50uM Fe2+, 37°C, pH 7.0
Description: One such assay is based upon the fact that the lipid, soybean phosphatidylcholine, readily undergoes oxidation. This oxidation may be initiated by a variety of oxidizing agents such as Fe^2+ and H2O2, or 2,2'-azobis-(2-amidinopropane). A spin trapping agent will decrease the rate at which the lipid undergoes oxidation in this assay. This assay is described in detail in: a) Nilsson, U.A., Olsson, L-I, Carlin, G. and Bylund-Fellenius, A-C. (1989) Inhibition of lipid peroxidation by spin labels. Relationships between structure and function. J. Biol. Chem. 264:11131-11135; and b) Aust, S.D. (1985). Lipid peroxidation. In Handbook of Methods for Oxygen Radical Research. (Greenwald, R.A., ed.) CRC Press, Inc. Boca Raton, Florida, pp. 203-207.
Soybean phosphatidylcholine (PC) was obtained from commercial suppliers such as Sigma or Avanti Polar Lipids. The soy PC was dissolved in ethanol achieving a final concentration of 0.563mM. […]
The ability of a compound to inhibit oxidation of the soy PC liposome was evaluated in the following manner. […]
The samples were heated at 100°C for 20 minutes, cooled and centrifuged. The absorbance of the resulting supernatant was determined at 532-580nm. Quantitation of the thiobarbituric acid/oxidized PC complex was determined by comparison to a standard curve of malondialdehyde equivalents generated by acid catalysed hydrolysis of 1,1,3,3-tetraethoxypropane. […]

[6] = Inhibition of oxidation of soy PC liposome by Fe2+/histidine-Fe3+ (thiobarbituric acid readout); type: biochemical; settings: histidine/Fe3+ 250:50uM, initiated with 50 uM Fe2+; 15 minutes, 37°C
[7] = dose 3 mg/kg IP 30 minutes prior to endotoxin (30mg/kg IP)
[8] = dose 10 mg/kg IP 30 minutes prior to endotoxin (30mg/kg IP)
[9] = dose 30 mg/kg IP 30 minutes prior to endotoxin (30mg/kg IP)

CC(C)(C)[N+]([O-])=Cc1ccccc1 [PBN, α-phenyl N-tert-butyl nitrone]
survival in animal models of circulatory shock [1]: significantly increase survival
CNS damage in gerbil model of stroke (gerbils [2]): less CNS damage
myocardial dysfunction occurring after reperfusion (myocardial tissues): decreases the amount of myocardial dysfunction

CC1(C)Cc2ccccc2C=[N+]1[O-] [Example I, 3,4-Dihydro-3,3-dimethylisoquinoline N-oxide]
locomotor activity of ischemic gerbils (gerbils [3]; 30mg/kg): significantly decreased
protective effect in gerbil model (gerbils [3]): protective effect
locomotor activity of ischemic gerbils (gerbils [3]; 100mg/kg): significantly decreased
locomotor activity of non-ischemic gerbils (gerbils [3]; non-ischemic gerbils, Figure I): no effect
neuronal loss of ischemic gerbils (gerbils [3]; various doses, versus control and non-ischemic gerbils, Figure IV): saved significant amounts of neuronal tissue
IL-1 (picrogram/ml-serum) (Interleukin-1): 6.4 picrogram/ml-serum
% Surviving (ENDOTOXIN TREATED RATS; [7]): 33%
Survival Rate (ENDOTOXIN TREATED RATS; [7]): 4/12
% Surviving (ENDOTOXIN TREATED RATS; [8]): 58%
Survival Rate (ENDOTOXIN TREATED RATS; [8]): 7/12
% Surviving (ENDOTOXIN TREATED RATS; [9]): 83%
Survival Rate (ENDOTOXIN TREATED RATS; [9]): 10/12
IC50 [4]: 330 µM

[O-][N+]1=Cc2ccccc2CC12CCCCC2 [Example II, Sprio [cyclohexane-1,3']-3,4-dihydroisoquinoline-N-oxide]
protective effect in gerbil model (gerbils [3]): protective effect
IL-1 (picrogram/ml-serum) (Interleukin-1): 4.7 picrogram/ml-serum
% Surviving (ENDOTOXIN TREATED RATS; [7]): 30%
Survival Rate (ENDOTOXIN TREATED RATS; [7]): 3/10
% Surviving (ENDOTOXIN TREATED RATS; [8]): 91%
Survival Rate (ENDOTOXIN TREATED RATS; [8]): 19/23
IC50 [4]: 200 µM
IC100 Required to prevent Oxidation of Soybean Phosphatidylcholne by Fe^+2/H202 [5]: 0.1 mM
IC100 Required to prevent Oxidation of Soybean Phosphatidylcholne by Fe^+2/histidine-Fe^3+ [6]: 0.3 mM

[O-][N+]1=Cc2ccccc2CC12CCCC2 [Example III, Spiro [cyclopentane-1,3']-[1H]dihydroisoquinoline 2-oxide]
protective effect in gerbil model (gerbils [3]): protective effect
IL-1 (picrogram/ml-serum) (Interleukin-1): 10.2 picrogram/ml-serum
% Surviving (ENDOTOXIN TREATED RATS; [8]): 17%
Survival Rate (ENDOTOXIN TREATED RATS; [8]): 2/12
% Surviving (ENDOTOXIN TREATED RATS; [9]): 91%
Survival Rate (ENDOTOXIN TREATED RATS; [9]): 10/11
IC50 [4]: 100 µM
IC100 Required to prevent Oxidation of Soybean Phosphatidylcholne by Fe^+2/H202 [5]: 0.3 mM
IC100 Required to prevent Oxidation of Soybean Phosphatidylcholne by Fe^+2/histidine-Fe^3+ [6]: 0.7 mM
